The subject of this test is L1210 leukemia ip in BDF1 mice, survival T/C. As to the kind of experiment: NCI In Vivo Anticancer Drug Screen. Data for tumor model L1210 Leukemia (intraperitoneal) in B6D2F1 (BDF1) mice. The following applies: endpoint: mean survival time, higher = longer survival. A digest of the protocol: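 Tumor was transplanted into mice, which were then dosed with test compound or vehicle alone. Survival was recorded for each group, and the treated figure was expressed relative to the control figure.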

[1] abbreviates: dose: 100.0 mg/kg/injection, schedule: Q04DX002 (ip), vehicle: saline with Tween-80.
[2] abbreviates: dose: 200.0 mg/kg/injection, schedule: Q04DX002 (ip), vehicle: saline with Tween-80.
Setting [3] is: dose: 25.0 mg/kg/injection, schedule: Q01DX009 (ip), vehicle: saline with Tween-80.
[4] abbreviates: dose: 50.0 mg/kg/injection, schedule: Q01DX009 (ip), vehicle: saline with Tween-80.
[5] abbreviates: dose: 50.0 mg/kg/injection, schedule: Q04DX003 (ip), vehicle: saline with Tween-80.
[6] abbreviates: dose: 100.0 mg/kg/injection, schedule: Q01DX009 (ip), vehicle: saline with Tween-80.
Setting [7] is: dose: 100.0 mg/kg/injection, schedule: Q04DX003 (ip), vehicle: saline with Tween-80.
Where [8] appears, read: dose: 400.0 mg/kg/injection, schedule: Q01DX001 (ip), vehicle: saline.
Setting [9] is: dose: 50.0 mg/kg/injection, schedule: Q01DX001 (ip), vehicle: carboxymethylcellulose (CMC).
The mark [10] stands for this setting: dose: 100.0 mg/kg/injection, schedule: Q01DX001 (ip), vehicle: carboxymethylcellulose (CMC).
Where [11] appears, read: dose: 200.0 mg/kg/injection, schedule: Q01DX001 (ip), vehicle: carboxymethylcellulose (CMC).
The mark [12] stands for this setting: dose: 200.0 mg/kg/injection, schedule: Q04DX003 (ip), vehicle: saline with Tween-80.
[13] abbreviates: dose: 400.0 mg/kg/injection, schedule: Q04DX003 (ip), vehicle: saline with Tween-80.
The mark [14] stands for this setting: dose: 100.0 mg/kg/injection, schedule: Q04DX003 (ip), vehicle: Klucel (hydroxypropylcellulose) (HPC).
Where [15] appears, read: dose: 200.0 mg/kg/injection, schedule: Q04DX003 (ip), vehicle: Klucel (hydroxypropylcellulose) (HPC).
[16] abbreviates: dose: 400.0 mg/kg/injection, schedule: Q04DX003 (ip), vehicle: Klucel (hydroxypropylcellulose) (HPC).

The source of these data is PubChem BioAssay AID248 (DTP/NCI, 2004).

Several values for one entry are separate records, joined by “and”; a condition that tells them apart may be missing. Identical values can stand only once. Inconclusive results and toxic doses are left out.

As for `CCN(CC)c1ccc(NCN2C(=O)c3ccccc3C2=O)c(C)c1`, the T/C runs as follows: under setting [1], 97 % of control; under setting [2], 111 % of control.
On to `C/C=C\C(=O)OC.[W]`, for which the T/C runs as follows: (dose: 50.0 mg/kg/injection, schedule: Q01DX009 (ip), vehicle: saline) 97 % of control; (dose: 100.0 mg/kg/injection, schedule: Q01DX009 (ip), vehicle: saline) 105 % of control; (dose: 200.0 mg/kg/injection, schedule: Q01DX009 (ip), vehicle: saline) 108 % of control.
Consider `Nc1nc(-c2ccccc2)cs1`, for which the T/C is 106 % of control under setting [3]; 100 % of control (dose: 25.0 mg/kg/injection, schedule: Q04DX003 (ip), vehicle: saline with Tween-80); 108 % of control under setting [4]; 92 % of control under setting [5]; 106 % of control under setting [6]; 92 % of control under setting [7].
Take `O=C(CCCCC(=O)Nc1ccc(C2=NCCN2)cc1)Nc1ccc(C2=NCCN2)cc1`: the T/C is 123 % of control (dose: 11.0 mg/kg/injection, schedule: Q01DX009 (ip), vehicle: saline); 123 % of control (dose: 75.0 mg/kg/injection, schedule: Q04DX003 (ip), vehicle: saline); 256 % of control (dose: 90.0 mg/kg/injection, schedule: Q01DX009 (ip), vehicle: saline); 123 % of control (dose: 150.0 mg/kg/injection, schedule: Q04DX003 (ip), vehicle: saline); 108 % of control (dose: 175.0 mg/kg/injection, schedule: Q01DX001 (ip), vehicle: saline); 212 % of control (dose: 175.0 mg/kg/injection, schedule: Q01DX009 (ip), vehicle: saline). The T/C (dose: 265.0 mg/kg/injection, schedule: Q01DX009 (ip), vehicle: saline) was 214 % of control; the T/C (dose: 266.0 mg/kg/injection, schedule: Q01DX001 (ip), vehicle: saline) was 156 % of control; the T/C (dose: 300.0 mg/kg/injection, schedule: Q04DX003 (ip), vehicle: saline) was 154 % of control; the T/C under setting [8] was 186 % of control; the T/C (dose: 500.0 mg/kg/injection, schedule: Q01DX001 (ip), vehicle: carboxymethylcellulose (CMC)) was 179 % of control; the T/C (dose: 600.0 mg/kg/injection, schedule: Q01DX001 (ip), vehicle: saline) was 214 % of control. In addition, the T/C is 197 % of control (dose: 600.0 mg/kg/injection, schedule: Q04DX003 (ip), vehicle: saline) and 273 % of control (dose: 1000.0 mg/kg/injection, schedule: Q01DX001 (ip), vehicle: carboxymethylcellulose (CMC)).
For `CC(C)=NNC(=O)c1ccccn1`, the T/C by setting is: under setting [9], 101 % of control; (dose: 50.0 mg/kg/injection, schedule: Q01DX009 (ip), vehicle: carboxymethylcellulose (CMC)) 104 % of control; (dose: 50.0 mg/kg/injection, schedule: Q04DX003 (ip), vehicle: carboxymethylcellulose (CMC)) 100 % of control; under setting [10], 104 % of control; (dose: 100.0 mg/kg/injection, schedule: Q01DX009 (ip), vehicle: carboxymethylcellulose (CMC)) 104 % of control and 106 % of control; (dose: 100.0 mg/kg/injection, schedule: Q04DX003 (ip), vehicle: carboxymethylcellulose (CMC)) 115 % of control. Moreover, the T/C under setting [11] is 113 % of control.
As for `O=C1c2ccccc2C(=O)c2c(O)c3c(c(O)c21)CCCC3OC1OC(CO)C(O)C(O)C1O` (stereo unspecified), the T/C under setting [8] is 91 % of control.
For the molecule `OC(/C=C/c1ccccc1)CC(O)(C(F)(F)F)C(F)(F)F` (stereo unspecified), the T/C was 103 % of control under setting [7], 110 % of control under setting [12] and 110 % of control under setting [13].
Consider `CCC(C)CC(C)c1ccncc1` (stereo unspecified), for which the T/C is, setting by setting: (dose: 5.0 mg/kg/injection, schedule: Q01DX001 (ip), vehicle: saline) 97 % of control; (dose: 10.0 mg/kg/injection, schedule: Q01DX001 (ip), vehicle: saline) 100 % of control; (dose: 20.0 mg/kg/injection, schedule: Q01DX001 (ip), vehicle: saline) 100 % of control; (dose: 40.0 mg/kg/injection, schedule: Q01DX001 (ip), vehicle: saline) 97 % of control; (dose: 80.0 mg/kg/injection, schedule: Q01DX001 (ip), vehicle: saline) 97 % of control; (dose: 100.0 mg/kg/injection, schedule: Q01DX001 (ip), vehicle: saline) 97 % of control.
Turning to `Cc1c(O)ccc2c1CCCC2`, the T/C is, setting by setting: (dose: 25.0 mg/kg/injection, schedule: Q04DX003 (ip), vehicle: Klucel (hydroxypropylcellulose) (HPC)) 103 % of control; (dose: 50.0 mg/kg/injection, schedule: Q04DX003 (ip), vehicle: Klucel (hydroxypropylcellulose) (HPC)) 97 % of control; (dose: 100.0 mg/kg/injection, schedule: Q01DX009 (ip), vehicle: saline sonified) 92 % of control; under setting [14], 92 % of control and 117 % of control; (dose: 200.0 mg/kg/injection, schedule: Q01DX009 (ip), vehicle: saline sonified) 88 % of control; under setting [15], 107 % of control. Moreover, the T/C is, setting by setting: (dose: 400.0 mg/kg/injection, schedule: Q01DX009 (ip), vehicle: saline sonified) 94 % of control; under setting [16], 103 % of control.
As for `Cc1ccc(Cl)cc1NC(=O)OCCOc1ccccc1`, the T/C was 104 % of control under setting [5]; 93 % of control (dose: 100.0 mg/kg/injection, schedule: Q01DX001 (ip), vehicle: saline with Tween-80); 95 % of control under setting [6]; 112 % of control and 89 % of control under setting [1]; 96 % of control and 91 % of control under setting [7]; 91 % of control (dose: 200.0 mg/kg/injection, schedule: Q01DX001 (ip), vehicle: saline with Tween-80). Moreover, the T/C (dose: 200.0 mg/kg/injection, schedule: Q01DX009 (ip), vehicle: saline with Tween-80) was 103 % of control and 90 % of control; the T/C under setting [2] was 94 % of control; the T/C under setting [12] was 102 % of control; the T/C (dose: 400.0 mg/kg/injection, schedule: Q01DX001 (ip), vehicle: saline with Tween-80) was 98 % of control; the T/C (dose: 400.0 mg/kg/injection, schedule: Q01DX009 (ip), vehicle: saline with Tween-80) was 95 % of control and 103 % of control; the T/C (dose: 400.0 mg/kg/injection, schedule: Q04DX002 (ip), vehicle: saline with Tween-80) was 94 % of control and 95 % of control. In addition, the T/C under setting [13] is 88 % of control and 92 % of control.
As for `O=C1c2ccccc2C(=O)N1C1CCCCCCC1`, the T/C runs as follows: (dose: 100.0 mg/kg/injection, schedule: Q04DX002 (ip), vehicle: Klucel (hydroxypropylcellulose) (HPC)) 94 % of control; (dose: 200.0 mg/kg/injection, schedule: Q04DX002 (ip), vehicle: Klucel (hydroxypropylcellulose) (HPC)) 100 % of control; (dose: 400.0 mg/kg/injection, schedule: Q04DX002 (ip), vehicle: Klucel (hydroxypropylcellulose) (HPC)) 97 % of control.
`C[Si](C)(C)OCCCCCCCl`: the T/C is 108 % of control under setting [9]; 101 % of control under setting [10]; 95 % of control under setting [11]; 103 % of control (dose: 400.0 mg/kg/injection, schedule: Q01DX001 (ip), vehicle: carboxymethylcellulose (CMC)).
In the case of `CC12C(=O)OC(=O)C1(C)C1OC2C(Br)C1Br` (stereo unspecified), the T/C under setting [3] is 95 % of control, the T/C under setting [4] was 97 % of control and the T/C under setting [6] is 88 % of control.
With `CCN=C(N)C(C)SS(=O)(=O)O` (stereo unspecified), the T/C by setting is: (dose: 100.0 mg/kg/injection, schedule: Q04DX002 (ip), vehicle: saline) 106 % of control; (dose: 200.0 mg/kg/injection, schedule: Q04DX002 (ip), vehicle: saline) 98 % of control.
`CCOC(=O)/C=C\n1c(=O)cc(C)c2ccccc21`: the T/C was 98 % of control (dose: 100.0 mg/kg/injection, schedule: Q01DX009 (ip), vehicle: Klucel (hydroxypropylcellulose) (HPC)); 89 % of control under setting [14]; 108 % of control (dose: 200.0 mg/kg/injection, schedule: Q01DX009 (ip), vehicle: Klucel (hydroxypropylcellulose) (HPC)); 92 % of control under setting [15]; 108 % of control (dose: 400.0 mg/kg/injection, schedule: Q01DX009 (ip), vehicle: Klucel (hydroxypropylcellulose) (HPC)); 87 % of control under setting [16].
